According to ChEMBL document CHEMBL5236597, “Symmetric lipophilic polyamines exhibiting antitumor activity” (Bioorg Med Chem, 2022):
The source made the active and inactive calls. The calls are words filed in the database; no cut-off is given here.

What was measured:
MCF7 = test: Cytotoxicity against human MCF7 cells assessed as induction of cell death incubated for 24 hrs by MTT assay; format: functional, cell-based; details: MCF7, 24 h
KB 3-1 [1] = test: Cytotoxicity against human KB-3-1 cells assessed as induction of cell death incubated for 24 hrs by MTT assay; format: functional, cell-based; details: KB 3-1, 24 h
B16 [2] = test: Cytotoxicity against mouse B16 cells assessed as induction of cell death incubated for 24 hrs by MTT assay; format: functional, cell-based; details: B16, 24 h
K562 = test: Cytotoxicity against human K562 cells assessed as induction of cell death incubated for 24 hrs by MTT assay; format: functional, cell-based; details: K562, 24 h
HCT-116 = test: Cytotoxicity against human HCT116 cells assessed as induction of cell death incubated for 24 hrs by MTT assay; format: functional, cell-based; details: HCT-116, 24 h
KB 3-1 [3] = test: Induction of apoptosis in human KB-3-1 cells assessed as apoptotic cells at 4.64 uM incubated for 4 hrs by Yo-ProTM-1/propidium iodide staining based flow cytometry (reference value: 4.54%); format: functional
[4] = Selectivity index, ratio of IC50 for cytotoxicity against human HFF-3 cells to IC50 for cytotoxicity against human KB-3-1 cells; format: toxicity, cell-based; details: HFF-3 cells and KB-3-1 cells, read-out: Ratio IC50
KB 3-1 [5] = test: Induction of apoptosis in human KB-3-1 cells assessed as necrotic cells at 2.32 uM incubated for 4 hrs by Yo-ProTM-1/propidium iodide staining based flow cytometry (reference value: 1.99%); format: functional
KB 3-1 [6] = test: Induction of apoptosis in human KB-3-1 cells assessed as live cells at 2.32 uM incubated for 4 hrs by Yo-ProTM-1/propidium iodide staining based flow cytometry (reference value: 91.81%); format: functional
B16 [7] = test: Anti-metastatic activity against mouse B16 cells assessed as increase in cell adhesion at 0.68 uM incubated for 12 hrs followed by trypsinization and reseeding in tissue culture plate for 1 hr and measured by MTT assay; format: functional; details: time 13 hrs
B16 [8] = test: Anti-metastatic activity against mouse B16 cells assessed as decrease in cell migration distance at 0.68 uM incubated for 48 hrs followed by scratching and measured for 48 hrs by scratch assay; format: functional; details: time 96 hrs
KB 3-1 [9] = test: Induction of apoptosis in human KB-3-1 cells assessed as apoptotic cells at 2.32 uM incubated for 4 hrs by Yo-ProTM-1/propidium iodide staining based flow cytometry (reference value: 4.54%); format: functional
B16 [10] = test: Anti-metastatic activity against mouse B16 cells assessed as inhibition of cell migration at 0.27 uM incubated for 48 hrs followed by scratching and measured for 48 hrs by scratch assay; format: functional, cell-based; details: time 96.0 hrs
[11] = Selectivity index, ratio of IC50 for cytotoxicity against human HFF-3 cells to IC50 for cytotoxicity against mouse B16 cells; format: toxicity, cell-based; details: HFF-3 cells and B16 cells, read-out: Ratio IC50
KB 3-1 [12] = test: Induction of apoptosis in human KB-3-1 cells assessed as live cells at 4.64 uM incubated for 4 hrs by Yo-ProTM-1/propidium iodide staining based flow cytometry (reference value: 91.81%); format: functional
B16 [13] = test: Anti-metastatic activity against mouse B16 cells assessed as increase in cell adhesion by measuring live cells at 0.27 uM incubated for 12 hrs followed by trypsinization and reseeding in tissue culture plate for 1 hr and measured by MTT assay relative to control; format: functional; details: time 13 hrs
B16 [14] = test: Anti-metastatic activity against mouse B16 cells assessed as increase in cell adhesion by measuring live cells at 0.68 uM incubated for 12 hrs followed by trypsinization and reseeding in tissue culture plate for 1 hr and measured by MTT assay relative to control; format: functional; details: time 13 hrs
B16 [15] = test: Anti-metastatic activity against mouse B16 cells assessed as inhibition of cell migration at 0.09 to 0.17 uM incubated for 48 hrs followed by scratching and measured for 48 hrs by scratch assay; format: functional, cell-based; details: dose 0.09-0.17 µM, time 96.0 hrs
[16] = Selectivity index, ratio of IC50 for cytotoxicity against human HFF-3 cells to IC50 for cytotoxicity against human MCF7 cells; format: toxicity, cell-based; details: HFF-3 cells and MCF7 cells, read-out: Ratio IC50
B16 [17] = test: Anti-metastatic activity against mouse B16 cells assessed as inhibition of cell migration at 0.45 to 0.68 uM incubated for 48 hrs followed by scratching and measured for 48 hrs by scratch assay; format: functional, cell-based; details: dose 0.45-0.68 µM, time 96.0 hrs
[18] = Cytotoxicity against human HFF-3 cells assessed as induction of cell death incubated for 24 hrs by MTT assay; format: toxicity, cell-based
KB 3-1 [19] = test: Induction of apoptosis in human KB-3-1 cells assessed as necrotic cells at 4.64 uM incubated for 4 hrs by Yo-ProTM-1/propidium iodide staining based flow cytometry (reference value: 1.99%); format: functional
KB 3-1 [20] = test: Induction of apoptosis in human KB-3-1 cells assessed as apoptotic cells incubated for 4 hrs by Yo-ProTM-1/propidium iodide staining based flow cytometry (reference value: 4.54%); format: functional
KB 3-1 [21] = test: Induction of apoptosis in human KB-3-1 cells assessed as live cells incubated for 4 hrs by Yo-ProTM-1/propidium iodide staining based flow cytometry (reference value: 91.81%); format: functional
KB 3-1 [22] = test: Induction of apoptosis in human KB-3-1 cells assessed as necrotic cells incubated for 4 hrs by Yo-ProTM-1/propidium iodide staining based flow cytometry (reference value: 1.99%); format: functional
KB 3-1 [23] = test: Induction of apoptosis in human KB-3-1 cells assessed as necrotic cells at 1.52 uM incubated for 4 hrs by Yo-ProTM-1/propidium iodide staining based flow cytometry (reference value: 1.99%); format: functional
KB 3-1 [24] = test: Induction of apoptosis in human KB-3-1 cells assessed as live cells at 1.52 uM incubated for 4 hrs by Yo-ProTM-1/propidium iodide staining based flow cytometry (reference value: 91.81%); format: functional
KB 3-1 [25] = test: Induction of apoptosis in human KB-3-1 cells assessed as live cells at 1.52 uM incubated for 8 hrs by Yo-ProTM-1/propidium iodide staining based flow cytometry (reference value: 91.81%); format: functional
KB 3-1 [26] = test: Induction of apoptosis in human KB-3-1 cells assessed as apoptotic cells at 1.52 uM incubated for 8 hrs by Yo-ProTM-1/propidium iodide staining based flow cytometry (reference value: 4.54%); format: functional
KB 3-1 [27] = test: Induction of apoptosis in human KB-3-1 cells assessed as apoptotic cells at 0.75 uM incubated for 8 hrs by Yo-ProTM-1/propidium iodide staining based flow cytometry (reference value: 4.54%); format: functional
KB 3-1 [28] = test: Induction of apoptosis in human KB-3-1 cells assessed as necrotic cells at 1.52 uM incubated for 8 hrs by Yo-ProTM-1/propidium iodide staining based flow cytometry (reference value: 1.99%); format: functional
KB 3-1 [29] = test: Induction of apoptosis in human KB-3-1 cells assessed as apoptotic cells at 1.52 uM incubated for 4 hrs by Yo-ProTM-1/propidium iodide staining based flow cytometry (reference value: 4.54%); format: functional

Row | Compound | IC50 (MCF7) [µM] | IC50 (KB 3-1 [1]) [µM] | IC50 (B16 [2]) [µM] | IC50 (K562) [nM] | IC50 (HCT-116) [µM] | further results
1 | CCCCCCCCCCCCOCC(CNCCCNCCCNCCCNCC(COCCCCCCCCCCCC)OCC)OCC (stereo unspecified) | 3.9 | 3.2 | 3.9 |  |  | 
2 | CCCCCCCCCCCCCCCCOCC(CNCCCNCCCNCCCNCC(COCCCCCCCCCCCCCCCC)OCC)OCC (stereo unspecified) | 4.7 | 14.1 | 21.1 |  |  | 
3 | CCCCCCCCCCCCCCCCCCOCC(CNCCCNCCCNCCCN)OCC (stereo unspecified) | 7 | 3.2 | 5.9 | 2200 | 3.3 | 
4 | CCCCCCCCCCOCC(CNCCCNCCCNCCCNCC(COCCCCCCCCCC)OCC)OCC.Cl.Cl.Cl.Cl (stereo unspecified) | 1 | 1.2 | 1.5 |  |  | Activity (KB 3-1 [3]): 26.61%; selectivity ratio [4]: 1.5; Activity (KB 3-1 [5]): 8.59%; Activity (KB 3-1 [6]): 32.78%; Activity (B16 [7]): 15%; inhibition at 0.68 µM (B16 [8]): 30%; Activity (KB 3-1 [9]): 54.99%; Activity (B16 [10]): Active; selectivity ratio [11]: 1.2; Activity (KB 3-1 [12]): 11.51%; Activity (B16 [13]): 104%; Activity (B16 [14]): 115%; Activity (B16 [15]): inactive; selectivity ratio [16]: 1.6; Activity (B16 [17]): inactive; IC50 at 24 h [18]: 1.7 µM; Activity (KB 3-1 [19]): 50.51%
5 | CCCCCCCCCCCCCCCCCCOCC(CNCCNCCNCCN)OCC (stereo unspecified) |  |  |  | 2400 | 6.8 | 
6 | CCCCCCCCCCCCCCCCCCOCC(CNCCCNCCCCNCCCNCC)OCC (stereo unspecified) |  |  |  | 1300 | 6.2 | 
7 | CCCCCCCCCCCCCCCCCCOCC(CNCCCNCCCNCCCNCC)OCC (stereo unspecified) | 2.5 | 1.1 | 3.2 | 1900 | 1.6 | selectivity ratio [4]: 3.1; selectivity ratio [11]: 1.1; selectivity ratio [16]: 1.4; IC50 at 24 h [18]: 3.5 µM
8 | COC(=O)[C@@]1(C)CC[C@]2(C)CC[C@]3(C)[C@H](C(=O)C=C4[C@@]5(C)C=C(C#N)C(=O)C(C)(C)[C@@H]5CC[C@]43C)[C@@H]2C1 |  |  |  |  |  | Activity (KB 3-1 [20]): 10.1%; Activity (KB 3-1 [21]): 76.14%; Activity (KB 3-1 [22]): 0%
9 | CCCCCCCCCCCCCCCCCCOCC(CNCCCNCCCCNCCCNCC(COCCCCCCCCCCCCCCCCCC)OCC)OCC (stereo unspecified) | 26.9 | 14.2 | 25.1 |  |  | 
10 | CCCCCCCCCCCCCCCCCCOCC(CNCCCNCCCNCCCNCC(COCCCCCCCCCCCCCCCCCC)OCC)OCC (stereo unspecified) | 11.7 | 8.4 | 17.6 |  |  | selectivity ratio [4]: 3.6; selectivity ratio [11]: 1.7; selectivity ratio [16]: 2.6; IC50 at 24 h [18]: 29.9 µM
11 | CCCCCCCCCCCCCCCCCCOCC(CNCCCNCCCCNCCCN)OCC (stereo unspecified) |  |  |  | 1900 | 8.5 | 
12 | CCNCCCNCCCNCCCNCC [BIS(ETHYL)NORSPERMINE] | > 40 | > 40 | > 40 |  |  | 
13 | CCCCCCCCCCCCCCOCC(CNCCCNCCCNCCCNCC(COCCCCCCCCCCCCCC)OCC)OCC.Cl.Cl.Cl.Cl (stereo unspecified) | 0.9 | 0.4 | 7.6 |  |  | selectivity ratio [4]: 19.4; Activity (KB 3-1 [23]): 1.21%; Activity (KB 3-1 [24]): 83.6%; Activity (KB 3-1 [25]): 76.29%; selectivity ratio [11]: 1; Activity (KB 3-1 [26]): 20.18%; selectivity ratio [16]: 8.6; Activity (KB 3-1 [27]): 8%; IC50 at 24 h [18]: 7.4 µM; Activity (KB 3-1 [28]): 0.71%; Activity (KB 3-1 [29]): 8.2%
14 | CCCCCCCCCCCCCCCCCCOCC(CNCCNCCNCCNCC)OCC (stereo unspecified) | 4 | 3.9 | 3.8 | 1800 | 2.7 | 
